Here are results for 1 sequence from patent publication US9683025B2, “Methods and compositions for treating cancer and inflammatory diseases” (The Regents of the University of Colorado, A Body Corporate, priority 2013, dated 2017).

Entries after “also recorded” stand apart in the source; their conditions may differ.

One assay has as its system 3T3 cells. Nature of the assay: Cell viability, 3T3. It counts as cell-based, mouse. As to conditions: 3T3, does not significantly overexpress CtBP, FIG. 5. An excerpt: (§1) The Tat peptide alone has no effect on these cells.
The test system of another assay is A375 melanoma cells. Description: Cell viability, A375. The assay is classed as cell-based. As to conditions: A375, CtBP overexpressing, FIG. 5.
Source text: as §1

In assay [1] the test system is CtBP target genes BAX, BRCA1, and E-Cadherin. Nature of the assay: Real-time PCR of endogenous CtBP target genes in H1299 cells. The assay is classed as cell-based, human. As to conditions: increasing concentrations, FIG. 6. As to the method: Total RNA was isolated using TRIzol (Invitrogen) as previously described (Zhang et al., 2006). One hundred nanograms of RNA from each sample were subjected to qRT-PCR (ThermoFisher). An 18S probe was used as an internal control. Each sample was examined in triplicate. Relative RNA expression levels were determined by normalizing with internal controls, the values were calculated using the comparative Ct method.
Subsequently, the transcription levels of the endogenous CtBP target genes BAX, BRCA1, and E-Cadherin in Tat-E1A treated H1299 cells were evaluated using real-time PCR.
A general note: Real-time PCR tracks product formation cycle by cycle.

Assay [2] concerns IMQ-based psoriasis model. Nature of the assay: IMQ-based psoriasis model. It counts as in vivo, mouse. As to conditions: FIG. 15B, versus PBS.
In assay [3] the test system is H1299 non-small cell lung carcinoma cells. Nature of the assay: Cell viability, H1299. As to conditions: H1299, CtBP overexpressing, FIG. 5. It counts as cell-based, human.
Source text: as §1

In the case of GRKKRRQRRRPPQLEEPGQPLDLSCKRPR [Tat-E1A], the cell viability entry is given as “does not affect” in the assay on 3T3 cells, “reduces the viability” in the assay with A375 melanoma cells and “reduces the viability” in assay [3]. Besides, the “CtBP-mediated suppression of target genes BAX, BRCA1, E-Cadherin (transcription levels)” value in assay [1] is listed as “dose-dependent alleviation; also recorded: relieves the suppression”. The “erythema, thickening and scaling (cumulative score)” value in assay [2] is listed as “Reduction”.
